Assay results reported in patent publication US20140325707A1, “GROWTH ENHANCEMENT OF PLANTS” (Yissum Research Development Company of the Hebrew …, priority 2011, published 2014).

Assays:
[1] = tested on: tomato (Solanum lycopersicum) cv Moneymaker; assay: Growth assay of tomato seedlings from seeds primed with IR-PRN; format: in vivo
Method: Seeds of tomato (Solanum lycopersicum) cv Moneymaker were primed with a priming solution containing 25% PEG without (control) or with IR-PRN.
The seeds were sown in randomly placed small tagged pots containing potting mixture, in a glasshouse at a night and day temperature of 15-18° C. and 22-27° C., respectively. Plant height, weight and dry weight were measured when the plant reached 3-5 true leaves. Typically the seedlings were 4-5 weeks old.

[2] = tested on: R. solani; assay: Assay for R. solani resistance (damping-off disease) of tomato plants; format: in vivo; settings: control plants wilted within 2 weeks
Method: Roots of tomato (Solanum lycopersicum) seedlings were immersed in a water solution of IL-60-BS and IR-PRN or IR-PRN-GFP (1 μg/plantlet) until the entire solution was sucked up by the plants. The plants were then potted and kept in the greenhouse at 24° C. Tomato seedlings, 2 weeks after application of IL-60-BS and IR-PRN, were transferred to pots with 0.5 kg of soil mixed with 0.5 g of R. solani mycelium. Control plants (not carrying PRN) were similarly treated. Plants were kept for 2 to 3 weeks at 24° C. until symptom appearance.

[3] = tested on: Rhizoctonia solani; assay: Bioassay for inhibition of Rhizoctonia solani in vitro; format: cell-based; settings: plant-extracted, HPLC-purified PRN; 28° C., 3 days
Method: R. solani was cultured on potato dextrose agar at 28° C. A disk (30 mm in diameter) of R. solani-containing agar was transferred to another Petri dish containing potato dextrose agar and 10 μl of HPLC elution buffer (negative control), 10 μl of various plant extracts, or 10 μl containing 0.2 mg of synthetic PRN in elution buffer (Sigma, positive control). Inhibition of fungal growth was determined after incubation at 28° C. for 3 days.

[4] = plant expressing PRN, seedlings at 3-5 true leaves, 4-5 weeks old

O=[N+]([O-])c1c(Cl)cccc1-c1c[nH]cc1Cl [PRN, 3-chloro-4-(2′-nitro-3′-chlorophenyl)-pyrrole]
Dry weight [1, 4]: 3.6 gr | Dry weight (% of fresh weight) [1, 4]: 42.7 % of fresh weight | Fresh weight [1, 4]: 9.2 gr | Height [1, 4]: 11 cm | Growth Enhancement (%), Dry weight ([1]; relative to control plant): 276.9% | Growth Enhancement (%), Dry weight (% of fresh weight) ([1]; relative to control plant): 159.9% | Growth Enhancement (%), Fresh weight ([1]; relative to control plant): 191.7% | Growth Enhancement (%), Height ([1]; relative to control plant): 134.1% | State of plants in R. solani-infested soil [2]: remained healthy | Inhibition of growth of R. solani [3]: inhibitory
